According to patent US20120035201A1, “SPIROHETEROCYCLIC PYRROLIDINE DIONE DERIVATIVES USED AS PESTICIDES” (SYNGENTA CROP PROTECTION LLC, priority 2009, published 2012):

Tests used:
[1] = test system: Thrips tabaci (onion thrips); test: Example B4: activity against Thrips tabaci, sprayed sunflower leaf discs (feeding/residual contact, preventive); conditions: foliar, 144 h, read-out: activity (mortality)
[2] = test system: Aphis Craccivora (cowpea aphid); test: Example B9: translaminar activity against Aphis craccivora on French bean leaves; type: in vivo; conditions: 120 h, upper leaf side painted, aphids on lower side, 5 days
Protocol: Translaminar Activity Against Aphis Craccivora (Cowpea Aphid)
French bean leaves (Phaseolus vulgaris) are infested with about 20 mixed age individuals on the lower leaf side using clip cages. 1 day after the infestation, the upper side of the leaves is treated with the test solution by painting. 5 days later, samples are checked for mortality.

[3] = test system: Myzus persicae (green peach aphid); test: Example B1: activity against Myzus persicae, sprayed sunflower leaf discs (feeding/residual contact, preventive); conditions: foliar, 144 h, read-out: activity (mortality)
[4] = test system: Nilaparvata lugens (brown rice planthopper); test: Example B8: activity against Nilaparvata lugens, larvicide on rice seedlings (feeding/contact); type: in vivo; conditions: sprayed rice seedlings, N3 nymphs, 6-12 days, read-out: activity (mortality, growth regulation, effects on F1 generation)
Protocol: Activity Against Nilaparvata lugens (Brown Rice Planthopper)
(Larvicide, Feeding/Contact)
Rice seedlings are treated with the diluted test solutions in a spray chamber. After drying, they are infested with 20 N3 nymphs (2 replicates). 6-12 days after the treatment samples are checked for mortality, growth regulation, and effects on the F1 generation. In this test, compounds listed in the Table A above show good activity. For example compounds A1, A2, A4, A7, A8, A9, A13 and A14 show an activity of over 80% at a concentration of 400 ppm.

[5] = test system: Myzus persicae (green peach aphid); test: Example B2: activity against Myzus persicae, pea seedling roots in test solution (systemic/feeding, curative); conditions: 144 h, read-out: activity (mortality)
[6] = test system: Tetranychus urticae (two-spotted spider mite); test: Example B3: activity against Tetranychus urticae, sprayed bean leaf discs (feeding/residual contact, preventive); type: in vivo; conditions: foliar, 192 h, mixed population, 8 days, read-out: activity (egg, larval and adult mortality)
Excerpt: Activity Against Tetranychus urticae (Two-Spotted Spider Mite)
(Mixed Population, Feeding/Residual Contact Activity, Preventive)
Bean leaf discs on agar in 24-well microtiter plates are sprayed with test solutions. […] 8 days later, discs are checked for egg mortality, larval mortality, and adult mortality. In this test, compounds listed in the Table A above show good activity. In particular compounds A1, A4, A5, A7, A8, A9, A10, A11, A12, A13 and A14 show an activity of over 80% at a concentration of 400 ppm.

[7] = test system: Aphis Craccivora (cowpea aphid); test: Example B15: activity against Aphis craccivora, pea seedling roots in test solution (systemic/feeding); type: in vivo; conditions: 144 h, roots of infested pea seedlings in test solution, 6 days
Excerpt: Activity Against Aphis Craccivora (Cowpea Aphid)
(§1) (Mixed Population, Systemic/Feeding)
6 days later, samples are checked for mortality. In this test, compounds listed in Table A above show good activity. For example compounds A8, A9, A13 and A14 show an activity of over 80% at a concentration of 25 ppm.

[8] = test system: Myzus persicae (green peach aphid); test: Example B12: activity against Myzus persicae on sprayed pepper plants (feeding/residual contact); type: in vivo; conditions: 144 h, 6 days
pepper plants = test: Example B12: plant damage evaluation (phytotoxicity) on sprayed pepper plants; conditions: in vivo, 6 days, 200 ppm
[9] = test system: Diabrotica balteata (corn root worm); test: Example B5: activity against Diabrotica balteata, larvicide on artificial diet in microtiter plate; type: in vivo; conditions: 120 h, L2 larvae, 5 days, read-out: activity (larval mortality, antifeedant, growth regulation)
Protocol: Activity Against Diabrotica balteata (Corn Root Worm)
(Larvicide, Feeding/Residual Contact Activity, Preventive)
24-well microtiter plate (MTP) with artificial diet is treated with test solutions by pipetting. After drying, the MTP's are infested with larvae (L2)(6-10 per well). After an incubation period of 5 days, samples are checked for larval mortality, antifeedant and growth regulation.

[10] = test system: Aonidiella Aurantii (red scale); test: Example B10: activity against Aonidiella aurantii, dipped potato tubers; type: in vivo; conditions: 200 ppm, 6-8 weeks
Excerpt: Activity Against Aonidiella Aurantii (Red Scale)
Treatment of potato tubers by dipping the in the test solution. One day later, tubers are infested with about 50 crawlers. 6-8 weeks after application samples are checked for the number of crawlers of the next generation (compared to the non treated samples). In this test, compounds listed in the Table A above show good activity.

[11] = test system: cowpea aphid (Aphis craccivora); test: Example B13: insecticide seed treatment of sugarbeet seeds, infestation with cowpea aphid; type: in vivo; conditions: 0.1 mg a.i./seed, infested after 14 days, counted 7 days later
Protocol: Insecticide Seed Treatment
Sugarbeet seeds are treated with test compounds at various rates (mg a.i./seed). The seeds are sown into pots filled with soil. After placing the seeds on the soil surface they are further covered with soil. Before and during the bioassays, the plants are grown under optimal greenhouse conditions. After 14 days, the plants are infested with cowpea aphid (Aphis craccivora) by placing one infested pea seedling containing approximately 150 aphids of a population of mixed developmental stages onto each plant. Seven days after infestation, the number of aphids is counted per plant. Each treatment group is replicated 10 times. Each replicate contains 1 plant.

[12] = test system: Bemisia tabaci (tobacco white fly); test: Example B7: activity against Bemisia tabaci, larvicide on bean plants (contact/feeding); type: in vivo; conditions: 200 ppm; bean plants with N-2 nymphs sprayed, three weeks
Protocol: Activity Against Bemisia tabaci (Tobacco White Fly)
(Larvicide, Contact/Feeding)
Bean plants are infested with 20-30 adults that were removed after a 4 day egg-laying period. After another 7 days, bean plants with hatched nymphs (N−2) are treated (2 replicates) with the test solutions in a spray chamber. Three weeks later, samples are checked for number of emerged adults. Efficacy was calculeted by comparing number of emerged adults in treated and non treated samples.

[13] = test system: Aphis gossypii (cotton aphid); test: Example B11: activity against Aphis gossypii, pea seedling roots in test solution (systemic/feeding); type: in vivo; conditions: 144 h, roots of infested pea seedlings in test solution, 6 days
Excerpt: Activity Against Aphis gossypii (Cotton Aphid)
as §1
6 days later, samples are checked for mortality. In this test, compounds listed in Table A above show good activity.

SMILES	mortality at 400 ppm [1] [%]	mortality at 400 ppm [2] [%]	mortality at 400 ppm [3] [%]	mortality at 400 ppm [4] [%]	mortality at 400 ppm [5] [%]	mortality at 400 ppm [6] [%]	further results
CON1CCC2(CC1)NC(=O)C(Cl)(c1c(C)cc(C)cc1C)C2=O (stereo not drawn) [A14]	> 80	> 80	> 80	> 80	> 80	> 80	mortality at 25 ppm [7]: > 80%
CON1CCC2(CC1)NC(=O)C(Cl)(c1c(C)cc(Cl)cc1C)C2=O (stereo not drawn) [A5]	> 80	–	> 80	–	> 80	> 80	mortality at 200 ppm [8]: ≥ 80%; damage to pepper plants (phytotoxicity, 0-100% rating scale) (pepper plants): ≤ 10%
CON1CCC2(CC1)NC(=O)C(Cl)(c1c(C)cc(Br)cc1C)C2=O (stereo not drawn) [A6]	–	–	> 80	–	–	–	–
CON1CCC2(CC1)NC(=O)C(Cl)(c1c(C)cc(Br)cc1Cl)C2=O (stereo not drawn) [A7, 3-(4-bromo-2-chloro-6-methyl-phenyl)-3-chloro-8-methoxy-1,8-diaza-spiro[4.5]decane-2,4-dione]	> 80	> 80	> 80	> 80	> 80	> 80	mortality at 200 ppm [8]: ≥ 80%; damage to pepper plants (phytotoxicity, 0-100% rating scale) (pepper plants): ≤ 10%
CON1CCC2(CC1)NC(=O)C(Cl)(c1ccc(Cl)cc1Cl)C2=O (stereo not drawn) [A3]	–	–	> 80	–	> 80	–	–
CON1CCC2(CC1)NC(=O)C(Cl)(c1c(C)ccc(Cl)c1C)C2=O (stereo not drawn) [A10]	> 80	–	> 80	–	–	> 80	–
CON1CCC2(CC1)NC(=O)C(Cl)(c1cc(C)c(C)cc1Cl)C2=O (stereo not drawn) [A12]	> 80	–	> 80	–	> 80	> 80	mortality at 400 ppm [9]: > 80%
CON1CCC2(CC1)NC(=O)C(Cl)(c1c(C)cccc1C)C2=O (stereo not drawn) [A8]	> 80	> 80	> 80	> 80	> 80	> 80	mortality at 200 ppm [8]: ≥ 80%; damage to pepper plants (phytotoxicity, 0-100% rating scale) (pepper plants): ≤ 10%; mortality at 25 ppm [7]: > 80%
CON1CCC2(CC1)NC(=O)C(Cl)(c1cc(C)c(Cl)cc1C)C2=O (stereo not drawn) [A11]	> 80	–	> 80	–	–	> 80	mortality at 400 ppm [9]: > 80%
CON1CCC2(CC1)NC(=O)C(Cl)(c1cc(Br)c(C)cc1C)C2=O (stereo not drawn) [A15]	> 80	–	> 80	–	> 80	–	–
CON1CCC2(CC1)NC(=O)C(Cl)(c1cc(C)c(C)cc1C)C2=O (stereo not drawn) [A13]	> 80	> 80	> 80	> 80	> 80	> 80	mortality at 200 ppm [8]: ≥ 80%; damage to pepper plants (phytotoxicity, 0-100% rating scale) (pepper plants): ≤ 10%; mortality at 25 ppm [7]: > 80%; mortality at 400 ppm [9]: > 80%
CON1CCC2(CC1)NC(=O)C(Cl)(c1cc(C)ccc1C)C2=O (stereo not drawn) [A1, 3-chloro-3-(2,5-dimethyl-phenyl)-8-methoxy-1,8-diaza-spiro[4.5]decane-2,4-dione]	> 80	–	> 80	> 80	> 80	> 80	activity (number of crawlers of the next generation vs non treated) [10]: over 80%; efficacy in the reduction of aphids compared to untreated control plants [11]: over 80%; activity (efficacy, number of emerged adults vs non treated) [12]: over 80%; mortality at 400 ppm [9]: > 80%; mortality at 25 ppm [13]: > 80%
CON1CCC2(CC1)NC(=O)C(F)(c1cc(C)ccc1C)C2=O (stereo not drawn) [A2, 3-(2,5-dimethyl-phenyl)-3-fluoro-8-methoxy-1,8-diaza-spiro[4.5]decane-2,4-dione]	> 80	–	> 80	> 80	–	–	–
CON1CCC2(CC1)NC(=O)C(Cl)(c1c(Br)cc(C)cc1Br)C2=O (stereo not drawn) [A18]	–	–	> 80	–	> 80	–	–
CON1CCC2(CC1)NC(=O)C(Cl)(c1c(C)cc(C)cc1Cl)C2=O (stereo not drawn) [A9]	> 80	> 80	> 80	> 80	> 80	> 80	mortality at 25 ppm [7]: > 80%
CON1CCC2(CC1)NC(=O)C(c1c(C)cc(C)cc1C)([N+](=O)[O-])C2=O (stereo not drawn) [A16, 8-methoxy-3-nitro-3-(2,4,6-trimethyl-phenyl)-1,8-diaza-spiro[4.5]decane-2,4-dione]	–	–	–	–	–	–	melting point: 136 °C (dec.)
